Data: patent US7309494B2, “Peptides of the respiratory syncytial virus (RSV) G protein and their use in a vaccine” (Pierre Fabre Medicament, priority 2001, dated 2007)
“Also recorded” adds a separate entry of the source.

Assays:
RSV-A [1] = assay: Anti-RSV-A antibody titer before and after immunization in naive mice; type: in vivo, Balb/c mice
Description: (§1) In order to test the immunogenicity of the G23a and G20a peptides, Balb/c mice were immunized with 6 or 1.5 μg of G2Na equivalent twice, on D0 and D14, intramuscularly.
(§2) Some mice were sensitized with RSV 20 days before the first immunization in order to make them seropositive with respect to RSV. A sample was taken from the mice before each immunization and the anti-G2Na, RSV-A and RSV-B antibody titers were determined.

RSV-A [2] = assay: Protection against an RSV-A challenge in immunized mice (viral titer 5 days after challenge); type: in vivo, Balb/c mice; conditions: naive mice
Description: as §1
Ten days after the final immunization, the mice were challenged with 10^5 pfu/50 μl of RSV-A. The viral titer was measured 5 days after the challenge.

[3] = Determination of the IHS (immediate hypersensitivity) in guinea pigs; type: in vivo; conditions: for death of the guinea pigs (dead/tested): i.m. D0 and D8 with 20% adjuphos, i.v. booster D21
Description: Guinea pigs are immunized on D0 and D8 with the various molecules adjuvented with 20% (v/v) adjuphos, given i.m. On D21, a booster is given with the various molecules, nonadjuvented, by i.v. The death of the guinea pigs is then evaluated.
A positive experimental control consisting of ovalbumin at 200 μg is included for each molecule tested (cf. table 3 below).

RSV-B = assay: Anti-RSV-B antibody titer before and after immunization in naive mice; type: in vivo; conditions: naive Balb/c mice, 6 or 1.5 μg G2Na equivalent i.m. on D0 and D14; after first immunization
Description: as §1, §2

Molecule	anti-RSV-A antibody response (RSV-A [1]; naive Balb/c mice, 6 or 1.5 μg G2Na equivalent i.m. on D0 and D14, after first immunization)	immunogenicity in naive mice (summary) (RSV-A [1]; naive mice)	protection of the pulmonary tract subsequent to challenge with RSV-A (RSV-A [2]; challenge 10^5 pfu/50 μl RSV-A ten days after final immunization)	immunogenicity and protection compared with BBG2Na (RSV-A [2])	death of the guinea pigs (dead/tested) ([3]; 4 mg)	death of the guinea pigs (dead/tested) ([3]; 40 mg)	induction of IHS ([3]; guinea pigs, 6 animals tested)	anti-RSV-B antibody response (RSV-B)	death of the guinea pigs (dead/tested) ([3]; positive control T+, ovalbumin at 200 μg)
G20a: fragment of the G protein of RSV-A (140-190)-(144-158) of 69 amino acids, SEQ ID No.1	develop anti-RSV-A and RSV-B antibody responses from the first immunization	immunogenic	induces protection of the pulmonary tract; also recorded: protective	comparable to those observed with BBG2Na	0/6	0/6	does not induce any IHS in 6/6 animals tested	develop anti-RSV-A and RSV-B antibody responses from the first immunization	
ovalbumin (protein, UniProt P01012 2-386, looked up, positive experimental control consisting of ovalbumin at 200 μg) Ovalbumin: GSIGAASMEFCFDVFKELKVHHANENIFYCPIAIMSALAMVYLGAKDSTRTQINKVVRFDKLPGFGDSIEAQCGTSVNVHSSLRDILNQITKPNDVYSFSLASRLYAEERYPILPEYLQCVKELYRGGLEPINFQTAADQARELINSWVESQTNGIIRNVLQPSSVDSQTAMVLVNAIVFKGLWEKAFKDEDTQAMPFRVTEQESKPVQMMYQIGLFRVASMASEKMKILELPFASGTMSMLVLLPDEVSGLEQLESIINFEKLTEWTSSNVMEERKIKVYLPRMKMEEKYNLTSVLMAMGITDVFSSSANLSGISSAESLKISQAVHAAHAEINEAGREVVGSAEAGVDAASVSEEFRADHPFLFCIKHIATNAVLFFGRCVSP									5/6
